The subject of assay [1] is multiple proteases in DC2.4 lysates. Kind of assay: Competition labeling in DC2.4 lysates with 125I-DCG-04. In kind it is biochemical. To be noted: for potency and selectivity, competition of 125I-DCG-04 labeling of multiple polypeptides: 50 μM library member, DC2.4 lysates, pH 5.5. As to the method: Lysates from the dendritic cell line DC2.4 were prepared at pH 5.5 as described above. Purified cathepsin H was purchased from Calbiochem (San Diego, Calif.). Samples of lysates (100 μg total protein in 100 μL buffer B; 50 mM Tris pH 5.5, 5 mM MgC12, 2 mM DTT) or purified cathepsin H (1 μg protein in 100 μL buffer A) were preincubated with 50 μM of each library member (diluted from 5 mM DMSO stocks) for 2 hrs at room temperature. […] Samples were quenched by the addition of 4×sample buffer to 1×followed by boiling for 5 minutes. Samples were analyzed by SDS-PAGE followed by autoradiography.

For assay [2], the system named is cysteine proteases in DC2.4 dendritic cell extracts. Kind of assay: Direct labeling of DC2.4 total cell extracts with probes (affinity blot / autoradiography). In kind it is binding. As to the method: Tissues were dounce-homogenized in buffer A (50 mM Tris pH 5.5, 1 mM DTT, 5 mM MgCl2, 250 mM sucrose) and extracts centrifuged at 1,100×g for 10 min at 4° C. The resulting supernatant was centrifuged at 22,000×g for 30 min at 4° C. and final supernatants used for all labeling experiments. Cells were lysed using glass beads (<104 microns) in buffer A and supernatants centrifuged for 15,000×g for 15 min at 4° C. The total protein concentration of the final supernatants (soluble) was determined by BCA protein quantification (Pierce).
Equivalent amounts of radioactive inhibitor stock solutions (approx. 10^6 cpm per sample) were used for all labeling experiments. Samples of lysates (100 μg total protein in 100 μL buffer; 50 mM Tris pH 5.5, 5 mM MgC12, 2 mM DTT) were labeled for 1 hour at 25° C. unless noted otherwise. Samples were quenched by dilution of 4×SDS sample buffer to 1×(for 1D SDS-PAGE) or by dissolving urea to a final concentration of 9.5 M (for 2D SDS-PAGE).
Quenched DCG-04 labeled samples were separated by SDS/PAGE […] and transferred to nitrocellulose using semi-dry apparatus. Membranes were blocked using phosphate buffered saline (PBS) and 5% (w/v) dry milk for 30 min at 25° C. Blots were washed briefly with PBS/0.2% Tween (PBS-Tween) and treated with avidin-horseradish peroxidase conjugate (VectaStain) in PBS-Tween for 30 min. at 25° C. […]

The target of assay [3] is T1, cathepsin B (Mus musculus, UniProt P10605).
T1 construct: This method allowed analysis of cathepsin B specificity in crude extracts; endogenous in cells; host or cells: DC2.4 dendritic cell line
T1 sequence (P10605 80-333 limits assumed): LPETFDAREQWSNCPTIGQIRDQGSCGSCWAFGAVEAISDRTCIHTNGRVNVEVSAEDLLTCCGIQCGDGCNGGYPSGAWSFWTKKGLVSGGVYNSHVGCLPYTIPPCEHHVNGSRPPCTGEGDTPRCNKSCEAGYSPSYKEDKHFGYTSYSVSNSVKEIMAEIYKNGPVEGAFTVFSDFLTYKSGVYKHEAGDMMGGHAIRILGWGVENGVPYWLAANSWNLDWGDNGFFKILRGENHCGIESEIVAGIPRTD
Kind of assay: Competition labeling in DC2.4 lysates with cathepsin B-specific 125I-MB-074. Format: biochemical. Particulars: P2 library preincubation. As to the method:
Lysates from the dendritic cell line DC2.4 were prepared at pH 5.5 as described above. Purified cathepsin H was purchased from Calbiochem (San Diego, Calif.). Samples of lysates (100 μg total protein in 100 μL buffer B; 50 mM Tris pH 5.5, 5 mM MgC12, 2 mM DTT) or purified cathepsin H (1 μg protein in 100 μL buffer A) were preincubated with 50 μM of each library member (diluted from 5 mM DMSO stocks) for 2 hrs at room temperature. Samples were then labeled by addition of either ^125I-DCG-04 or ^125I-MB-074 to each sample followed by further incubation at room temperature for 1 hour. Samples were quenched by the addition of 4×sample buffer to 1×followed by boiling for 5 minutes. Samples were analyzed by SDS-PAGE followed by autoradiography.

The subject of assay [4] is cysteine proteases in rat kidney. Kind of assay: Affinity purification and identification of DCG-04 modified proteins from rat kidney. In kind it is binding. Particulars: monomeric-avidin purification, mass spectrometry. Here is the method:
A soluble fraction of rat kidney lysate (80 mg total protein) was diluted into anion exchange starting buffer (50 mM Tris, 50 mM NaCl, pH 9.0). The lysate was applied to a […] anion exchange column (Amersham Pharmacia Biotech) and eluted using a linear gradient of 0.05-1M NaCl, pH 9. An aliquot from each fraction (50 μL) was incubated with 50 μM DCG-04 at 25° C. for 1hr and analyzed on a 12.5% SDS/PAGE gel followed by affinity blotting as described above. The fractions containing peak labeling of the 25 kD-30 kD bands were pooled and DCG-04 was added to a final concentration of 50 μM. Pools were incubated at 25° C. for 2 hours and then 12 hours at 4° C. Unbound inhibitor was removed and buffer was exchanged with PBS using a PD-10 column (Pharmacia). Samples were applied to a monomeric-avidin column (1 ml bed volume; Pierce) and the column was washed with 6×1 ml fractions of 1M NaCl. Bound proteins were eluted with 0.5 ml fractions of 2 mM Biotin/100 mM NH4HCO3 buffer. All wash and eluent fractions were analyzed by SDS/PAGE and silver staining. The fractions containing the labeled 25-30 kD bands were pooled, the volume reduced by lyophilization and solid urea added to 9.5 M along with BME to 5%, NP-40 to 2%, pH 5-7 ampholytes to 1.6% and pH 3.5-10 ampholytes to 0.4%. […]

The test system of assay [5] is papain family proteases in rat liver. Kind of assay: Affinity purification and identification of DCG-04 labeled proteases from rat liver. Particulars: single-step affinity purification, LC-MS-TOF CID. In kind it is binding. Here is the method: Protein lysates prepared in buffer A (50 mM Acetate buffer, 5 mM DTT, 0.1% Triton X-100) were incubated with […] for 1.5 hours at room temperature. After incubation the protein lysate was passed through a PD10 column pre-equilibrated with buffer B (50 mM Tris-Base 7.4, 150 mM NaCl) and proteins were eluted with the same buffer. SDS was added to eluted proteins to a final concentration of 0.5% and the solution boiled for 10 minutes, diluted 2.5 fold with buffer B (to reduce SDS concentration to 0.2%) and incubated with […] of pre-washed Streptavidin beads for 1 hour at room temperature. Beads were washed 5 times with buffer B, and bound proteins were eluted by boiling for 10 minutes in the presence of […]. For 2D analysis, samples in SDS sample buffer were diluted 1:1 with IEF sample buffer ([…], 5% BME, 2% NP-40, 1.6% pH 5-7 ampholines and 0.4% pH 3.5-10 ampholines) and pure NP-40 was added (25% of volume of sample). Samples were applied to IEF tube gels and electrophoresed at 1000V for 13 hours followed by separation in the second dimension on 15% SDS-PAGE gels. […] The mass range recorded in survey acquisitions was m/z 300-1400. […] All the data were measured using a two point external calibration. […]

For assay [6], the system named is papain family cysteine proteases in DC2.4 cells. Kind of assay: In situ fluorescence labeling of DC2.4 cells. Format: cell-based. To be noted: pre-treatment 10 mM for 1 hour. Here is the method: Dendritic cells (DC2.4) were plated on a 24-well dish (10^5 cells/well) embedded with sterile microscope cover slips, in RPMI medium containing 10% FBS. After 16 hours, cells were washed with 1 ml TC-199 medium and incubated with […] of Bodipy-DCG-04 in TC-199 for 12 hours at 37° C. Cells were washed 3 times with 1 ml TC-199 and incubated for 5 hr in probe-free medium. Subsequently, cells were either lysed in buffer A and analyzed on a 12.5% SDS-PAGE using a fluorescent scanner or viewed under a fluorescent microscope.

In assay [7] the test system is papaine family of cysteine proteases. Particulars: literature; cited from earlier work.
In assay [8] the test system is invasive cells. Particulars: treatment of invasive cells, literature; cited from earlier work.

In the case of `N[C@@H](CC(=O)O)C(=O)O` [aspartic acid], the “potency and selectivity, competition of 125I-DCG-04 labeling of multiple polypeptides” value (from here on “potency and selectivity, competition”) in assay [1] is given as “relatively poor activity overall, they showed some degree of specificity against polypeptide 2”.

Consider DCG-04, for which the “labeling of major 20-40 kDa species after preheating of samples” value in assay [2] (preheated to 100° C. for 1 min before adding compound) is “lost upon heat denaturation”. For the same compound, the “potency and selectivity, competition” value in assay [1] was “highest activity and the lowest amount of specificity”. Besides, the “activity, competition of 125I-MB-074 labeling of cathepsin B” value (“activity, competition” for short) in assay [3] is listed as “highest activity”. Moreover, in assay [4], the “active cysteine proteases identified via probe” value is “cathepsin B, H, and L”. Moreover, the “proteases identified via probe” value in assay [5] was “cathepsins Z, H, C and J”.

For `CCCC[C@H](N)C(=O)O` [norleucine], in assay [1], the “potency and selectivity, competition” value was “highest activity and the lowest amount of specificity”. Also, in assay [3], the “activity, competition” value is “highest activity”.

Turning to `CC(C)C[C@H](NC(=O)[C@H]1O[C@@H]1C(=O)O)C(=O)NCCCCN=C(N)N` [E-64], in assay [1] (increasing concentrations, preincubation, DC2.4 extracts), the “competition of 125I-DCG-04 labeling” value is recorded as “effectively competed”. Also, in assay [6], the “inhibition of in situ protease labeling by green-DCG-04” value is “completely inhibited”. For the same compound, the “reactivity toward cysteine proteases” value in assay [7] is given as “broadly reactive”. Also, the “effect on cellular invasion” value in assay [8] is “block in cellular invasion into a synthetic matrix”.

For the compound `N[C@@H](Cc1ccc(O)cc1)C(=O)O` [tyrosine], the “potency and selectivity, competition” value in assay [1] is “specificity for polypeptides 2, 3, 4, and 5”. The “activity, competition” value in assay [3] is “highest activity followed by the aromatic amino acids”.

Regarding `CC(C)[C@H](N)C(=O)O` [valine containing compound], the “potency and selectivity, competition” value in assay [1] was “competed for polypeptides 1, 2 and cathepsin B but had little effect on the remaining species”. In addition, in assay [3], the “activity, competition” value is recorded as “highest activity”.

For the compound `CC(C)CC(NC(=O)C1OC1C(=O)O)C(=O)NCCc1ccc(O)cc1` (stereo not shown) [JPM-565, reference compound], the “labeling as detected by affinity blotting” value in assay [2] (non-radiolabeled compound, DC2.4 extracts) is recorded as “no labeling”.

In the case of `CC[C@H](C)[C@H](N)C(=O)O` [isoleucine], the “potency and selectivity, competition” value in assay [1] is “highest activity and the lowest amount of specificity”. For the same compound, the “activity, competition” value in assay [3] was “highest activity”.

For `N[C@@H](Cc1ccccc1)C(=O)O` [phenylalanine], the “potency and selectivity, competition” value in assay [1] is “specificity for polypeptides 2, 3, 4, and 5”. Further, in assay [3], the “activity, competition” value was “highest activity followed by the aromatic amino acids”.

For `NCC(=O)O` [glycine], in assay [1], the “potency and selectivity, competition” value is “relatively poor activity overall, they showed some degree of specificity against polypeptide 2”.

Values taken from patent publication US20020150961A1, “Activity-dependent cysteine protease profiling reagent” (The Regents of the University of California Office of …, priority 2000, published 2002).
